From patent publication US20230263822A1, “MODULATION OF FACTOR 11 EXPRESSION” (Ionis Pharmaceuticals, Inc., priority 2008, published 2023)
Strand notation (5' to 3'): a small letter for the sugar, then the base; units joined by * are phosphorothioate-linked, units joined directly phosphodiester-linked; [ ] holds rarer units or linkages, { } end groups; capitals alone tell only the bases. e = 2'-O-(2-methoxyethyl) (MOE); [5mC] = 5-methylcytosine; d = 2'-deoxy (DNA)

What was measured:
Format in all cases: cell-based
human Factor 11 mRNA [1] = assay: Dose-dependent antisense inhibition of human Factor 11 in HepG2 cells, lipofectin 9.375-150 nM (Example 2); settings: ~16 h
Method: Cells were plated at a density of 10,000 cells per well and transfected using lipofectin reagent with 9.375 nM, 18.75 nM, 37.5 nM, 75 nM, and 150 nM concentrations of antisense oligonucleotide, as specified in Table 3. After a treatment period of approximately 16 hours, RNA was isolated from the cells and Factor 11 mRNA levels were measured by quantitative real-time PCR. Human Factor 11 primer probe set RTS 2966 (forward sequence: […], incorporated herein as SEQ ID NO: 3; reverse sequence: […], incorporated herein as SEQ ID NO: 4; probe sequence: TTGTCTACTGAAGCACACCCAAACAGGGAX, incorporated herein as SEQ ID NO: 5) was used to measure mRNA levels. Factor 11 mRNA levels were adjusted according to total RNA content, as measured by RIBOGREEN. Results are presented as percent inhibition of Factor 11, relative to untreated control cells.

human Factor 11 mRNA [2] = assay: Antisense inhibition of human Factor 11 in HepG2 cells, lipofectin, 75 nM (Example 1); settings: 75 nM antisense oligonucleotide, ~24 h, relative to untreated control cells, gapmers targeted to SEQ ID NO: 1
How it was run: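 HepG2 cells transfected via lipofectin with 75 nM antisense oligonucleotide (5-10-5 MOE gapmers, 20-mers, phosphorothioate, 5-methylcytidines), treated ~24 h. Factor 11 mRNA quantified by real-time PCR, normalised to RIBOGREEN total RNA; percent inhibition versus untreated cells.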

human Factor 11 mRNA [3] = assay: Antisense inhibition of human Factor 11 in HepG2 cells by microwalk gapmers, lipofectin, 75 nM (Example 3)
How it was run: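 HepG2 cells (10,000/well) were transfected via lipofectin with 75 nM 20-mer MOE gapmers (phosphorothioate, 5-methyl-C) for about 24 h. Factor 11 mRNA was measured by qRT-PCR, normalized to RIBOGREEN total RNA, and given as percent inhibition versus untreated cells.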

human Factor 11 mRNA [4] = assay: Dose-dependent inhibition of human Factor 11 in HepG2 cells, lipofectin 9.375-75 nM (Example 4); settings: for percent inhibition of Factor 11 at 9.375 nM / percent inhibition of Factor 11 at 18.75 nM / percent inhibition of Factor 11 at 37.5 nM / percent inhibition of Factor 11 at 75 nM: relative to untreated control cells
How it was run: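 HepG2 cells transfected via lipofectin with antisense oligonucleotide at 9.375, 18.75, 37.5 or 75 nM for about 16 h. Factor 11 mRNA quantified by real-time RT-PCR (primer probe set RTS 2966) and normalized to total RNA (RIBOGREEN). Results expressed as percent inhibition versus untreated cells.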

human Factor 11 mRNA [5] = assay: Dose-dependent inhibition of human Factor 11 in HepG2 cells, electroporation 0.7-20 uM (Example 4); settings: for percent inhibition of Factor 11 at 0.7 μM / percent inhibition of Factor 11 at 2.2 μM / percent inhibition of Factor 11 at 6.7 μM / percent inhibition of Factor 11 at 20 μM: relative to untreated control cells
How it was run: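 HepG2 cells electroporated with antisense gapmers at 0.7, 2.2, 6.7 and 20 μM, treated ~16 h. Factor 11 mRNA quantified by qRT-PCR (primer probe set RTS 2966), normalised to RIBOGREEN total RNA; expressed as percent inhibition versus untreated control cells.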

human Factor 11 mRNA [6] = assay: Dose-dependent inhibition of human Factor 11 in HepG2 cells, electroporation 123.46-10,000 nM (Example 31); settings: for Percent inhibition of Factor 11 mRNA at 123.47 nM / Percent inhibition of Factor 11 mRNA at 370.37 nM / IC50: electroporation; for Percent inhibition of Factor 11 mRNA at 123.47 nM / Percent inhibition of Factor 11 mRNA at 370.37 nM / Percent inhibition of Factor 11 mRNA at 1,111.11 nM / Percent inhibition of Factor 11 mRNA at 3,333.33 nM / Percent inhibition of Factor 11 mRNA at 10,000.0 nM: approx. 16 hours, relative to untreated control cells; for Percent inhibition of Factor 11 mRNA at 1,111.11 nM: electroporation, 1,111.11 nM; for Percent inhibition of Factor 11 mRNA at 3,333.33 nM: electroporation, 3,333.33 nM; for Percent inhibition of Factor 11 mRNA at 10,000.0 nM: electroporation, 10,000.0 nM; for IC50: Factor 11 mRNA expression
Method: Cells were plated at a density of 20,000 cells per well and transfected using electroporation with 123.46 nM, 370.37 nM, 1,111.11 nM, 3,333.33 nM and 10,000 nM concentrations of antisense oligonucleotide, as specified in Table 45. After a treatment period of approximately 16 hours, RNA was isolated from the cells and Factor 11 mRNA levels were measured by quantitative real-time PCR. Human Factor 11 primer probe set RTS 2966 was used to measure mRNA levels. Factor 11 mRNA levels were adjusted according to total RNA content, as measured by RIBOGREEN. Results are presented as percent inhibition of Factor 11, relative to untreated control cells.

human Factor 11 mRNA [7] = assay: Antisense inhibition of human Factor 11 in HepG2 cells, electroporation, 8,000 nM (Example 30); settings: electroporation, 8,000 nM antisense oligonucleotide
Method: These microwalk gapmers were tested in vitro. Cultured HepG2 cells at a density of 20,000 cells per well were transfected using electroporation with 8,000 nM antisense oligonucleotide. After a treatment period of approximately 24 hours, RNA was isolated from the cells and Factor 11 mRNA levels were measured by quantitative real-time PCR. Factor 11 mRNA levels were adjusted according to total RNA content, as measured by RIBOGREEN. Results are presented as percent inhibition of Factor 11, relative to untreated control cells.
The chimeric antisense oligonucleotides in Table 44 were designed as 5-10-5 MOE, 5-8-5 and 6-8-6 MOE gapmers. The first two listed gapmers in Table 44 are the original gapmers (ISIS 416850 and ISIS 416858) from which ISIS 445493-445543 were designed via microwalk, and are designated by an asterisk. The 5-10-5 gapmers are 20 nucleotides in length, wherein the central gap segment is comprised of ten 2′-deoxynucleotides and is flanked on both sides (in the 5′ and 3′ directions) by wings comprising five nucleotides each. The 5-8-5 gapmers are 18 nucleotides in length, wherein the central gap segment is comprised of eight 2′-deoxynucleotides and is flanked on both sides (in the 5′ and 3′ directions) by wings comprising five nucleotides each. The 6-8-6 gapmers are 20 nucleotides in length, wherein the central gap segment is comprised of eight 2′-deoxynucleotides and is flanked on both sides (in the 5′ and 3′ directions) by wings comprising six nucleotides each. For each of the motifs (5-10-5, 5-8-5 and 6-8-6), each nucleotide in the 5′ wing segment and each nucleotide in the 3′ wing segment has a 2′-MOE modification. The internucleoside linkages throughout each gapmer are phosphorothioate (P=S) linkages. All cytidine residues throughout each gapmer are 5-methylcytidines. “Human Target start site” indicates the 5′-most nucleotide to which the gapmer is targeted in the human sequence. “Human Target stop site” indicates the 3′-most nucleotide to which the gapmer is targeted in the human sequence. Each gapmer listed in Table 44 is targeted to SEQ ID NO: 1 (GENBANK Accession No. NM_000128.3). Each gapmer is Table 44 is also fully cross-reactive with the rhesus monkey Factor 11 gene sequence, designated herein as SEQ ID NO: 274 (exons 1-15 GENBANK Accession No. NW_001118167.1). ‘Rhesus monkey start site’ indicates the 5′-most nucleotide to which the gapmer is targeted in the rhesus monkey sequence. ‘Rhesus monkey stop site’ indicates the 3′-most nucleotide to which the gapmer is targeted to the rhesus monkey sequence.

[8] = HepG2, lipofectin, ~24 h, gapmers targeted to nucleobases 656 to 704 of SEQ ID NO: 1
[9] = HepG2 cells, lipofectin, gapmers targeted to nucleobases 1275 to 1318 of SEQ ID NO: 1

Substance	percent inhibition of Factor 11 at 9.375 nM (human Factor 11 mRNA [1])	percent inhibition of Factor 11 at 18.75 nM (human Factor 11 mRNA [1])	percent inhibition of Factor 11 at 37.5 nM (human Factor 11 mRNA [1])	percent inhibition of Factor 11 at 75 nM (human Factor 11 mRNA [1])	percent inhibition of Factor 11 at 150 nM (human Factor 11 mRNA [1])	IC50 (human Factor 11 mRNA [1])	% inhibition (human Factor 11 mRNA [2])	% inhibition (human Factor 11 mRNA [3]; [8])	Percent inhibition of Factor 11 mRNA at 123.47 nM (human Factor 11 mRNA [6])	Percent inhibition of Factor 11 mRNA at 370.37 nM (human Factor 11 mRNA [6])	Percent inhibition of Factor 11 mRNA at 1,111.11 nM (human Factor 11 mRNA [6])	Percent inhibition of Factor 11 mRNA at 3,333.33 nM (human Factor 11 mRNA [6])	Percent inhibition of Factor 11 mRNA at 10,000.0 nM (human Factor 11 mRNA [6])	IC50 (human Factor 11 mRNA [6])	Percent inhibition of human Factor 11 mRNA levels (human Factor 11 mRNA [7])	further results
413469 (antisense eT*eG*e[5mC]*e[5mC]*e[5mC]*dT*dT*d[5mC]*dA*dT*dG*dT*d[5mC]*dT*dA*eG*eG*eT*e[5mC]*e[5mC]) [compound 413469]	24%	33%	53%	70%	84%	33 nM	84%	86%	–	–	–	–	–	–	–	–
413468 (antisense eG*eT*e[5mC]*eT*eA*dG*dG*dT*d[5mC]*d[5mC]*dA*d[5mC]*dA*dT*dA*eA*eA*eT*eG*eT) [compound 413468]	14%	34%	56%	78%	75%	35 nM	84%	83%	–	–	–	–	–	–	–	–
413467 (antisense eG*eG*eT*e[5mC]*e[5mC]*dA*d[5mC]*dA*dT*dA*dA*dA*dT*dG*dT*e[5mC]*eT*eT*eT*eG) [compound 413467]	2%	35%	49%	61%	47%	43 nM	91%	92%	–	–	–	–	–	–	–	IC50 (human Factor 11 mRNA [4]): 20 nM; percent inhibition of Factor 11 at 9.375 nM (human Factor 11 mRNA [4]): 35%; percent inhibition of Factor 11 at 18.75 nM (human Factor 11 mRNA [4]): 51%; percent inhibition of Factor 11 at 37.5 nM (human Factor 11 mRNA [4]): 62%; percent inhibition of Factor 11 at 75 nM (human Factor 11 mRNA [4]): 69%; IC50 (human Factor 11 mRNA [5]): 4200 nM; percent inhibition of Factor 11 at 0.7 μM (human Factor 11 mRNA [5]): 5%; percent inhibition of Factor 11 at 2.2 μM (human Factor 11 mRNA [5]): 31%; percent inhibition of Factor 11 at 6.7 μM (human Factor 11 mRNA [5]): 65%; percent inhibition of Factor 11 at 20 μM (human Factor 11 mRNA [5]): 89%
445532 (antisense e[5mC]*eG*eG*e[5mC]*eA*dT*dT*dG*dG*dT*dG*d[5mC]*dA*e[5mC]*eA*eG*eT*eT) [compound 445532]	–	–	–	–	–	–	–	–	5%	12%	39%	60%	70%	2000 nM	89%	–
412212 (antisense e[5mC]*e[5mC]*eG*eG*eG*dA*dT*dG*dA*dT*dG*dA*dG*dT*dG*e[5mC]*eA*eG*eA*eT) [compound 412212]	28%	45%	59%	73%	88%	25 nM	88%	–	–	–	–	–	–	–	–	% inhibition (human Factor 11 mRNA [3]; HepG2 cells, lipofectin, gapmers targeted to nucleobases 1018 to 1042 of SEQ ID NO: 1): 89%
412203 (antisense eA*eA*eT*eG*eT*d[5mC]*dT*dT*dT*dG*dT*dT*dG*d[5mC]*dA*eA*eG*e[5mC]*eG*e[5mC]) [compound 412203]	29%	15%	61%	77%	82%	33 nM	91%	97%	–	–	–	–	–	–	–	IC50 (human Factor 11 mRNA [4]): 24 nM; percent inhibition of Factor 11 at 9.375 nM (human Factor 11 mRNA [4]): 33%; percent inhibition of Factor 11 at 18.75 nM (human Factor 11 mRNA [4]): 40%; percent inhibition of Factor 11 at 37.5 nM (human Factor 11 mRNA [4]): 62%; percent inhibition of Factor 11 at 75 nM (human Factor 11 mRNA [4]): 74%; IC50 (human Factor 11 mRNA [5]): 2700 nM; percent inhibition of Factor 11 at 0.7 μM (human Factor 11 mRNA [5]): 11%; percent inhibition of Factor 11 at 2.2 μM (human Factor 11 mRNA [5]): 60%; percent inhibition of Factor 11 at 6.7 μM (human Factor 11 mRNA [5]): 70%; percent inhibition of Factor 11 at 20 μM (human Factor 11 mRNA [5]): 91%
445503 (antisense eG*e[5mC]*eA*eT*eT*eG*dG*dT*dG*d[5mC]*dA*d[5mC]*dA*dG*eT*eT*eT*e[5mC]*eT*eG) [compound 445503]	–	–	–	–	–	–	–	–	0%	0%	22%	36%	60%	5900 nM	89%	–
416849 (antisense eG*e[5mC]*eA*e[5mC]*eA*dG*dT*dT*dT*d[5mC]*dT*dG*dG*d[5mC]*dA*eG*eG*e[5mC]*e[5mC]*eT) [compound 416849]	–	–	–	–	–	–	–	–	5%	5%	26%	57%	68%	2700 nM	88%	% inhibition (human Factor 11 mRNA [3]; [9]): 88%
416857 (antisense e[5mC]*eG*eG*e[5mC]*eA*dT*dT*dG*dG*dT*dG*d[5mC]*dA*d[5mC]*dA*eG*eT*eT*eT*e[5mC]) [compound 416857]	–	–	–	–	–	–	–	–	2%	20%	35%	62%	72%	2300 nM	91%	% inhibition (human Factor 11 mRNA [3]; [9]): 92%
